Laboratory results published in the supplement of paper PMC10307832.

How the values were obtained:
Assay in all cases: relative viability (nuclei count vs DMSO), 5 days (fraction); higher = more cells survive
[1] = compound: C1=CC2=NC=CN=C2C=C1/C=C/3\C(=O)NC(=O)S3 + COc1cc2c(Oc3ccc(NC(=O)C4(C(=O)Nc5ccc(F)cc5)CC4)cc3F)ccnc2cc1OCCCN1CCOCC1 [Foretinib] (partner 0.25 µM)
In short: (§1)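 Relative viability was taken as the ratio of nuclei in treated wells to nuclei in vehicle wells. Lung cancer cell lines in 1536-well plates received compounds by pin tool one day after seeding, either one drug alone or a fixed anchor-drug dose plus five library-drug doses (not always all listed) in √10 steps. Nuclei were counted on 4× images after 5 days of treatment, and values are medians of duplicate plates.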

[2] = compound: C1=CC2=NC=CN=C2C=C1/C=C/3\C(=O)NC(=O)S3 + Nc1ncn([C@H]2C[C@H](O)[C@@H](CO)O2)c(=O)n1 [Decitabine] (partner 2 µM)
In short: as §1

[3] = compound: CCN1CCN(c2ccc(Nc3cc(N(C)C(=O)Nc4c(Cl)c(OC)cc(OC)c4Cl)ncn3)cc2)CC1 [BGJ398] + Nc1ncn([C@H]2C[C@H](O)[C@@H](CO)O2)c(=O)n1 [Decitabine] (partner 2 µM)
In short: as §1

[4] = compound: CCN1CCN(c2ccc(Nc3cc(N(C)C(=O)Nc4c(Cl)c(OC)cc(OC)c4Cl)ncn3)cc2)CC1 [BGJ398] + CC1(C)CCC(c2ccc(Cl)cc2)=C(CN2CCN(c3ccc(C(=O)NS(=O)(=O)c4ccc(N[C@H](CCN5CCOCC5)CSc5ccccc5)c(S(=O)(=O)C(F)(F)F)c4)cc3)CC2)C1 [Navitoclax] (partner 0.5 µM)
In short: as §1

Cell Line | relative viability ([1]; first compound 0.02 µM) | relative viability ([1]; first compound 0.06325 µM) | relative viability ([1]; first compound 0.2 µM) | relative viability ([1]; first compound 0.6325 µM) | relative viability ([1]; first compound 2 µM) | relative viability ([2]; first compound 0.02 µM) | relative viability ([2]; first compound 0.06325 µM) | relative viability ([2]; first compound 0.2 µM) | relative viability ([2]; first compound 0.6325 µM) | relative viability ([2]; first compound 2 µM) | relative viability ([3]; first compound 0.01 µM) | relative viability ([3]; first compound 0.03162 µM) | relative viability ([3]; first compound 0.1 µM) | relative viability ([3]; first compound 0.3162 µM) | relative viability ([3]; first compound 1 µM) | relative viability ([4]; first compound 0.01 µM) | relative viability ([4]; first compound 0.03162 µM) | relative viability ([4]; first compound 0.1 µM) | relative viability ([4]; first compound 0.3162 µM) | relative viability ([4]; first compound 1 µM)
HCC-78 | 0.54 | 0.469 | 0.538 | 0.534 | 0.4 | 0.703 | 0.578 | 0.668 | 0.594 | 0.525 | 0.616 | 0.701 | 0.682 | 0.777 | 0.695 | 0.734 | 0.751 | 0.935 | 0.879 | 0.823
HCC-366 | 0.916 |  | 0.863 | 0.901 | 0.985 | 0.284 |  | 0.386 | 0.306 | 0.276 | 0.336 | 0.371 | 0.355 | 0.306 | 0.347 | 1.01 | 1.18 | 0.995 | 1.02 | 1.1
HCC-827 | 1.09 | 1.05 | 1.02 | 0.95 | 1.04 | 0.259 | 0.343 | 0.345 | 0.392 | 0.33 | 0.286 |  | 0.332 | 0.185 | 0.27 | 0.935 |  | 1.03 | 1.02 | 1.02
HOP-62 | 1.06 | 1.22 | 1.11 | 1.01 | 1.07 | 0.188 | 0.278 | 0.215 | 0.191 | 0.254 | 0.232 | 0.245 | 0.204 | 0.225 | 0.215 | 0.915 | 1 | 1.1 | 1.02 | 1.01
IA-LM | 1.15 | 1.28 | 1.15 | 1.2 | 1.25 |  |  |  |  |  |  |  |  |  |  | 0.614 | 0.798 | 0.764 | 0.724 | 0.917
LC-2-ad | 0.889 | 0.951 | 0.995 | 0.917 | 0.699 | 0.781 | 0.862 | 0.84 | 0.86 | 0.727 | 0.699 | 0.855 | 0.899 | 0.771 | 0.852 | 0.366 | 0.575 | 0.519 | 0.612 | 0.392
LCLC-97TM1 | 0.919 | 0.908 | 0.908 | 0.996 | 0.688 | 0.293 | 0.244 | 0.229 | 0.247 | 0.221 | 0.238 | 0.222 | 0.214 | 0.216 | 0.225 | 0.315 | 0.271 | 0.41 | 0.683 | 0.646
LCLC-103H | 0.864 | 0.711 | 0.813 | 0.653 | 0.648 | 0.71 | 0.798 | 0.707 | 0.747 | 0.709 | 0.714 | 0.631 | 0.67 | 0.628 | 0.566 |  |  |  |  | 
LK-2 | 1.06 | 1.16 | 1.26 | 1.03 | 0.789 | 0.285 | 0.291 | 0.452 | 0.279 | 0.154 | 0.234 | 0.262 | 0.222 | 0.157 | 0.137 | 0.72 | 0.733 | 0.726 | 0.529 | 0.317
NCI-H358 | 0.875 | 0.648 | 0.672 | 0.613 | 0.445 | 0.227 | 0.22 | 0.221 | 0.268 | 0.182 | 0.184 | 0.215 | 0.208 | 0.201 | 0.2 |  |  |  |  | 
NCI-H522 |  |  |  |  |  | 0.643 | 0.706 | 0.594 | 0.74 | 0.683 | 0.665 | 0.625 | 0.685 | 0.665 | 0.644 |  |  |  |  | 
NCI-H650 | 1.01 | 1.09 | 1.04 | 1.08 | 0.711 | 0.32 | 0.287 | 0.356 | 0.319 | 0.342 | 0.356 | 0.318 | 0.398 | 0.312 | 0.359 |  |  |  |  | 
NCI-H661 | 1 | 1.05 | 1.07 | 0.957 | 1.08 | 0.555 | 0.571 | 0.574 | 0.527 | 0.575 | 0.51 | 0.491 | 0.61 | 0.55 | 0.529 |  |  |  |  | 
NCI-H1299 | 1.01 | 1.11 | 1.11 | 1.09 | 1.15 |  |  |  |  |  |  |  |  |  |  | 1.06 | 1.06 | 1.03 | 1.03 | 1.06
NCI-H1563 | 0.901 | 0.979 | 0.914 | 0.895 | 0.943 |  |  |  |  |  |  |  |  |  |  |  |  |  |  | 
NCI-H1648 |  |  |  |  |  | 0.33 | 0.549 | 0.57 |  | 0.539 | 0.571 |  | 0.511 | 0.476 | 0.402 |  |  |  |  | 
NCI-H1703 | 0.38 | 0.442 | 0.34 | 0.295 | 0.324 |  |  |  |  |  |  |  |  |  |  | 0.823 | 1.39 | 0.989 | 1.14 | 0.964
NCI-H1792 |  |  |  |  |  | 0.535 |  | 0.6 | 0.513 | 0.374 | 0.476 | 0.533 | 0.568 | 0.474 | 0.441 | 0.659 | 0.561 | 0.642 | 0.601 | 0.553
NCI-H2228 | 0.834 | 1.05 | 0.961 | 0.841 | 0.749 |  |  |  |  |  |  |  |  |  |  | 0.728 | 1.04 | 0.998 | 0.893 | 0.867
NCI-H2342 | 0.891 | 0.93 | 1.02 | 0.953 | 0.891 | 0.726 | 0.664 | 0.805 | 0.69 | 0.716 | 0.725 | 0.808 | 0.714 | 0.758 | 0.815 |  |  |  |  | 
SW 900 | 0.703 | 0.823 | 0.77 | 1.06 | 0.797 | 0.418 | 0.356 | 0.515 |  | 0.433 | 0.447 | 0.421 | 0.371 | 0.469 | 0.43 |  |  |  |  | 
